Measurements published in patent US11116213B2, “Herbicidal composition comprising cinmethylin and pethoxamid” (BASF Agro B.V., priority 2015, dated 2021).

Tests used:
Type in all cases: in vivo
Abutilon theophrasti = assay: Greenhouse pre-emergence herbicidal activity on ABUTH; conditions: 20 DAT
Protocol: (§1) The test plants have been seeded, separately for each species, in plastic containers in sandy loamy soil containing 5% of organic matter.
(§2) The containers were irrigated gently to promote germination and growth and subsequently covered with transparent plastic hoods until the plants had rooted.
(§3) The plants have been cultivated due to their individual requirements at 10-25° C. and 20-35° C.
(§4) The plants were irrigated due to their necessity.
(§5) The racemic mixture (±)-2-exo-(2-Methylbenzyloxy)-1-methyl-4-isopropyl-7-oxabicyclo[2.2.1]heptane was used as herbicide A and formulated as an emulsifiable concentrate with an active ingredient concentration of 750 g/l.
(§6) Pethoxamid (herbicide B) was used as an emulsifiable concentrate formulation having an active ingredient concentration of 600 g/l.
(§7) In the following experiments, the herbicidal activity for the individual herbicidal compositions (solo and mixture applications) was assessed 20 days after treatment (DAT).
(§8) The evaluation for the damage on undesired weeds caused by the chemical compositions was carried out using a scale from 0 to 100%, compared to the untreated control plants. Here, 0 means no damage and 100 means complete destruction of the plants. […]

Alopecurus myosuroides = assay: Greenhouse pre-emergence herbicidal activity on ALOMY; conditions: 20 DAT
Protocol: as §1, §2, §3, §4, §5, §6, §7, §8

Anthemis arvensis = assay: Greenhouse pre-emergence herbicidal activity on ANTAR; conditions: 20 DAT; for herbicidal activity (%): herbicide A solo
Protocol: as §1, §2, §3, §4, §5, §6, §7
(§9) The evaluation for the damage on undesired weeds caused by the chemical compositions was carried out using a scale from 0 to 100%, compared to the untreated control plants. Here, 0 means no damage and 100 means complete destruction of the plants.
(§10) E=X+Y−(X·Y/100) where • X=effect in percent using herbicide A at an application rate a; • Y=effect in percent using herbicide B at application rate b; • E=expected effect (in %) of herbicide A+herbicide B at application rates a+b.
(§11) The value E corresponds to the effect (plant damage or injury) which is to be expected if the activity of the individual compounds is additive.
(§12) Table 1 below relates to the herbicidal activity, in greenhouse trials, of the individual actives and the combinations applied at different rates and ratios, in pre-emergence application at 20 days after treatment (DAT).

Avena fatua = assay: Greenhouse pre-emergence herbicidal activity on AVEFA; conditions: 20 DAT; for herbicidal activity (%): herbicide A solo
Protocol: as §1, §2, §3, §4, §5, §6, §7, §9, §10, §11, §12

Brassica napus = assay: Greenhouse pre-emergence herbicidal activity on BRSNW; conditions: 20 DAT
Protocol: as §1, §2, §3, §4, §5, §6, §7, §8

Chenopodium album = assay: Greenhouse pre-emergence herbicidal activity on CHEAL; conditions: 20 DAT
Protocol: as §1, §2, §3, §4, §5, §6, §7, §8

Lolium multiflorum = assay: Greenhouse pre-emergence herbicidal activity on LOLMU; conditions: 20 DAT
Protocol: as §1, §2, §3, §4, §5, §6, §7, §8

Polygonum convolvulus = assay: Greenhouse pre-emergence herbicidal activity on POLCO; conditions: 20 DAT; for herbicidal activity (%): herbicide A solo
Protocol: as §1, §2, §3, §4, §5, §6, §7, §9, §10, §11, §12

Setaria viridis = assay: Greenhouse pre-emergence herbicidal activity on SETVI; conditions: 20 DAT
Protocol: as §1, §2, §3, §4, §5, §6, §7, §8

Sorghum halepense = assay: Greenhouse pre-emergence herbicidal activity on SORHA; conditions: 20 DAT
Protocol: as §1, §2, §3, §4, §5, §6, §7, §8

[1] = herbicide A solo, 31.25 g ai/ha

CCOCCN(C(=O)CCl)C(=C(C)C)c1ccccc1 [pethoxamid, 2-chloro-N-(2-ethoxyethyl)-N-(2-methyl-1-phenylprop-1-enyl)acetamide]
inhibition at 62.5 g/ha (Abutilon theophrasti; Abutilon theophrasti, 480 h, pethoxamid solo, 62.5 g ai/ha): 20%
inhibition at 125 g/ha (Alopecurus myosuroides; Alopecurus myosuroides, 480 h, pethoxamid solo, 125 g ai/ha): 35%
inhibition at 62.5 g/ha (Anthemis arvensis; Anthemis arvensis, 480 h, pethoxamid solo, 62.5 g ai/ha): 20%
inhibition at 125 g/ha (Anthemis arvensis; Anthemis arvensis, 480 h, pethoxamid solo, 125 g ai/ha): 60%
inhibition at 125 g/ha (Avena fatua; Avena fatua, 480 h, pethoxamid solo, 125 g ai/ha): 40%
inhibition at 250 g/ha (Avena fatua; Avena fatua, 480 h, pethoxamid solo, 250 g ai/ha): 40%
inhibition at 500 g/ha (Avena fatua; Avena fatua, 480 h, pethoxamid solo, 500 g ai/ha): 50%
inhibition at 500 g/ha (Brassica napus; Brassica napus, 480 h, pethoxamid solo, 500 g ai/ha): 0%
inhibition at 62.5 g/ha (Chenopodium album; Chenopodium album, 480 h, pethoxamid solo, 62.5 g ai/ha): 40%
inhibition at 62.5 g/ha (Lolium multiflorum; Lolium multiflorum, 480 h, pethoxamid solo, 62.5 g ai/ha): 50%
inhibition at 125 g/ha (Polygonum convolvulus; Fallopia convolvulus, 480 h, pethoxamid solo, 125 g ai/ha): 15%
inhibition at 250 g/ha (Polygonum convolvulus; Fallopia convolvulus, 480 h, pethoxamid solo, 250 g ai/ha): 15%
inhibition at 500 g/ha (Polygonum convolvulus; Fallopia convolvulus, 480 h, pethoxamid solo, 500 g ai/ha): 30%
inhibition at 62.5 g/ha (Setaria viridis; Setaria viridis, 480 h, pethoxamid solo, 62.5 g ai/ha): 80%
inhibition at 125 g/ha (Sorghum halepense; Sorghum halepense, 480 h, pethoxamid solo, 125 g ai/ha): 85%

(±)-2-exo-(2-Methylbenzyloxy)-1-methyl-4-isopropyl-7-oxabicyclo[2.2.1]heptane [herbicide A]
herbicidal activity (%) (Abutilon theophrasti; [1]): 30%
herbicidal activity (%) (Alopecurus myosuroides; herbicide A solo, 62.5 g ai/ha): 98%
herbicidal activity (%) (Anthemis arvensis; 31.25 g ai/ha): 0%
herbicidal activity (%) (Anthemis arvensis; 62.5 g ai/ha): 0%
herbicidal activity (%) (Avena fatua; 62.5 g ai/ha): 0%
herbicidal activity (%) (Avena fatua; 125 g ai/ha): 25%
herbicidal activity (%) (Avena fatua; 250 g ai/ha): 35%
herbicidal activity (%) (Brassica napus; herbicide A solo, 250 g ai/ha): 0%
herbicidal activity (%) (Chenopodium album; [1]): 40%
herbicidal activity (%) (Lolium multiflorum; [1]): 60%
herbicidal activity (%) (Polygonum convolvulus; 62.5 g ai/ha): 0%
herbicidal activity (%) (Polygonum convolvulus; 125 g ai/ha): 0%
herbicidal activity (%) (Polygonum convolvulus; 250 g ai/ha): 15%
herbicidal activity (%) (Setaria viridis; [1]): 90%
herbicidal activity (%) (Sorghum halepense; herbicide A solo, 62.5 g ai/ha): 80%
